The molecules below were run on Aβ1-42 production (assay: Cellular assay for inhibition of Aβ1-42 production (H4 APP751 SWE clone 8.20)). Settings: 19 h, H4 APP751 SWE clone 8.20 cells, 19 h incubation; read-out: Activity Rating (Aβ42 cellular IC50, given as a number).
Assay type: cell-based
Protocol: Cellular assays for inhibition of Aβ1-40 and Aβ1-42 production
H4 cells stably transfected with APP751 containing the Swedish mutation (H4 APP751 SWE clone 8.20, developed at BMS) were maintained in log phase through twice weekly passage at a 1:20 split. For IC50 determinations, 30 μl cells (1.5×10^4 cells/well) in DMEM media containing 0.0125% BSA (Sigma A8412) were plated directly into 384-well compound plates (Costar 3709) containing 0.1 μl serially diluted compound in DMSO. Following incubation for 19 h in 5% CO2 at 37° C., plates were briefly centrifuged (1000 rpm, 5 min). A 10 μl aliquot from each well was transferred to a second assay plate (Costar 3709) for Aβ40 measurements. Antibody cocktails were freshly prepared by dilution into 40 mM Tris-HCl (pH 7.4) with 0.2% BSA and added to assay plates. For Aβ42 measurements, antibodies specific for the Aβ42 neoepitope (565, developed at BMS; conjugated to the Wallac reagent (Perkin Elmer)) and the N-terminal sequence of Aβ peptide (26D6, developed at SIBIA; conjugated to APC (Perkin Elmer)) were mixed and 20 μl of the mixture was added to each well of the incubated cell plate yielding a final concentration of 0.8 ng/well 565 and 75 ng/well 26D6. For the Aβ40 measurements, antibodies specific for the Aβ40 neoepitope (TSD, developed at BMS; conjugated to the Wallac reagent (Perkin Elmer)) and 26D6 as described above were mixed and 20 μl of the mixture was added to the 10 μl aliquots which had been removed previously from the cell plate yielding a final concentration of 1.6 ng/well TSD and 17.5 ng/well 26D6. Assay plates containing antibodies were sealed with aluminum foil and incubated overnight at 4° C. Signal was determined using a Viewlux counter (Perkin Elmer) and IC50 values determined using curve fitting in CurveMaster (Excel Fit based).

Compared with `COc1cc(Nc2nc3n(n2)CC=CCC3(C)C)ccc1-n1cnc(Cl)c1` [Example 9, (Z)—N-(4-(4-chloro-1H-imidazol-1-yl)-3-methoxyphenyl)-9,9-dimethyl-8,9-dihydro-5H-[1,2,4]triazolo[1,5-a]azepin-2-amine 2,2,2-trifluoroacetate], `COc1cc(Nc2nc3n(n2)CCCC3c2ccc(Cl)cc2Cl)ccc1-n1cnc(Cl)c1` (centres unmarked) [Example 12, N-(4-(4-chloro-1H-imidazol-1-yl)-3-methoxyphenyl)-8-(2,4-dichlorophenyl)-5,6,7,8-tetrahydro-[1,2,4]triazolo[1,5-a]pyridin-2-amine] is 14-fold lower in IC50: 110 nM for the first, 8 nM for the second.

Compared with `Cc1ncn(-c2ccc(Nc3nc4n(n3)CCCC4c3ccc(F)cc3)cc2C#N)n1` (centres unmarked) [Example 11, 5-(8-(4-fluorophenyl)-5,6,7,8-tetrahydro-[1,2,4]triazolo[1,5-a]pyridin-2-ylamino)-2-(3-methyl-1H-1,2,4-triazol-1-yl)benzonitrile, 2,2,2-trifluoroacetate], `COc1cc(Nc2nc3n(n2)CCCCC3c2ccc(F)cc2)ccc1-n1cnc(Cl)n1` (centres unmarked) [Example 33, N-(4-(3-chloro-1H-1,2,4-triazol-1-yl)-3-methoxyphenyl)-9-(4-fluorophenyl)-6,7,8,9-tetrahydro-5H-[1,2,4]triazolo[1,5-a]azepin-2-amine 2,2,2-trifluoroacetate] is 12-fold lower in IC50: 110 nM for the first, 9 nM for the second.

Same assay, conditions: 19 h, H4 APP751 SWE clone 8.20 cells, 19 h incubation; read-out: Activity Rating (based on Aβ42 cellular IC50 values)

`COc1cc(Nc2nc3n(n2)CCCC[C@@H]3c2ccc(OC(F)(F)F)cc2)c(F)cc1-n1cnc(C)n1` (single isomer, unassigned) [Example 177] and `COc1cc(Nc2nc3n(n2)CCCCC3c2ccc(F)cc2)c(F)cc1-n1cnc(C)n1` (centres unmarked) [Example 28, N-(2-fluoro-5-methoxy-4-(3-methyl-1H-1,2,4-triazol-1-yl)phenyl)-9-(4-fluorophenyl)-6,7,8,9-tetrahydro-5H-[1,2,4]triazolo[1,5-a]azepin-2-amine 2,2,2-trifluoroacetate] fall in the same range of IC50: 10 to 100 nM for the first, 10 to 100 nM for the second.

First: COc1cc(Nc2nc3n(n2)CC=CCC3c2ccc(F)cc2)ccc1-n1cnc(Cl)c1 (centres unmarked) [Example 1, (Z)—N-(4-(4-chloro-1H-imidazol-1-yl)-3-methoxyphenyl)-9-(4-fluorophenyl)-8,9-dihydro-5H-[1,2,4]triazolo[1,5-a]azepin-2-amine]
Second: COc1cc(Nc2nc3n(n2)CCCC3c2ccc(F)cc2)ccc1-n1cnc(Cl)c1 (centres unmarked) [Example 10, N-(4-(4-chloro-1H-imidazol-1-yl)-3-methoxyphenyl)-8-(4-fluorophenyl)-5,6,7,8-tetrahydro-[1,2,4]triazolo[1,5-a]pyridin-2-amine 2,2,2-trifluoroacetate]
The IC50 of the first is lower: < 10 nM for the first, 10 to 100 nM for the second. The first is the more potent here.

`COc1cc(Nc2nc3n(n2)CC=CCC3c2ccc(F)cc2)ccc1-n1cnc(C)n1` (centres unmarked) [Example 4, (Z)-9-(4-fluorophenyl)-N-(3-methoxy-4-(3-methyl-1H-1,2,4-triazol-1-yl)phenyl)-8,9-dihydro-5H-[1,2,4]triazolo[1,5-a]azepin-2-amine] and `COc1cc(Nc2nc3n(n2)CCCCC3c2ccc(F)cc2)ccc1-n1cnc(C)n1` (centres unmarked) [Example 7, 9-(4-fluorophenyl)-N-(3-methoxy-4-(3-methyl-1H-1,2,4-triazol-1-yl)phenyl)-6,7,8,9-tetrahydro-5H-[1,2,4]triazolo[1,5-a]azepin-2-amine 2,2,2-trifluoroacetate] fall in the same range of IC50: 10 to 100 nM for the first, 10 to 100 nM for the second.

First: COc1cc(Nc2nc3n(n2)CC=CCC3c2ccc(Cl)cc2Cl)ccc1-n1cnc(Cl)c1 (centres unmarked) [Example 8, (Z)—N-(4-(4-chloro-1H-imidazol-1-yl)-3-methoxyphenyl)-9-(2,4-dichlorophenyl)-8,9-dihydro-5H-[1,2,4]triazolo[1,5-a]azepin-2-amine]
Second: COc1cc(Nc2nc3n(n2)CCCCC3c2ccc(Cl)cc2Cl)ccc1-n1cnc(Cl)c1 (centres unmarked) [Example 19, N-(4-(4-chloro-1H-imidazol-1-yl)-3-methoxyphenyl)-9-(2,4-dichlorophenyl)-6,7,8,9-tetrahydro-5H-[1,2,4]triazolo azepin-2-amine 2,2,2-trifluoroacetate]
The IC50 of the first is higher: 10 to 100 nM for the first, < 10 nM for the second. The second is the more potent here.

`Cc1ncnn1-c1ccc(Nc2nc3n(n2)CCCC3c2ccc(F)cc2)cc1F` (centres unmarked) [Example 13, N-(3-fluoro-4-(5-methyl-1H-1,2,4-triazol-1-yl)phenyl)-8-(4-fluorophenyl)-5,6,7,8-tetrahydro-[1,2,4]triazolo[1,5-a]pyridin-2-amine] and `Cc1ncn(-c2ccc(Nc3nc4n(n3)CCCCC4c3ccc(F)cc3)cc2F)n1` (centres unmarked) [Example 25, N-(3-fluoro-4-(3-methyl-1H-1,2,4-triazol-1-yl)phenyl)-9-(4-fluorophenyl)-6,7,8,9-tetrahydro-5H-[1,2,4]triazolo[1,5-a]azepin-2-amine] fall in the same range of IC50: 10 to 100 nM for the first, 10 to 100 nM for the second.

`COc1cc(Nc2nc3n(n2)CCCCC3c2ccc(F)cc2)ccc1-n1cnc(Cl)c1` (centres unmarked) [Example 16, N-(4-(4-Chloro-1H-imidazol-1-yl)-3-methoxyphenyl)-9-(4-fluorophenyl)-6,7,8,9-tetrahydro-5H-[1,2,4]triazolo[1,5-a]azepin-2-amine] and `COc1cc(Nc2nc3n(n2)CCCCC3c2ccc(Cl)cc2)ccc1-n1cnc(Cl)c1` (centres unmarked) [Example 32, N-(4-(4-chloro-1H-imidazol-1-yl)-3-methoxyphenyl)-9-(4-chlorophenyl)-6,7,8,9-tetrahydro-5H-[1,2,4]triazolo[1,5-a]azepin-2-amine 2,2,2-trifluoroacetate] cannot be ordered by IC50: < 10 nM for the first, < 10 nM for the second.

`COc1cc(Nc2nc3n(n2)CCCCC3c2ccc(F)c(F)c2)ccc1-n1cnc(Cl)c1` (centres unmarked) [Example 22, N-(4-(4-chloro-1H-imidazol-1-yl)-3-methoxyphenyl)-9-(3,4-difluorophenyl)-6,7,8,9-tetrahydro-5H-[1,2,4]triazolo[1,5-a]azepin-2-amine 2,2,2-trifluoroacetate] and `COc1cc(Nc2nc3n(n2)CCCCC3c2ccc(F)cc2F)ccc1-n1cnc(Cl)c1` (centres unmarked) [Example 35, N-(4-(4-chloro-1H-imidazol-1-yl)-3-methoxyphenyl)-9-(2,4-difluorophenyl)-6,7,8,9-tetrahydro-5H-[1,2,4]triazolo[1,5-a]azepin-2-amine 2,2,2-trifluoroacetate] cannot be ordered by IC50: < 10 nM for the first, < 10 nM for the second.

`COc1cc(Nc2nc3n(n2)CCCC[C@H]3c2ccc(F)cc2)c(F)cc1-n1cnc(C)n1` [Example 29, (S)—N-(2-fluoro-5-methoxy-4-(3-methyl-1H-1,2,4-triazol-1-yl)phenyl)-9-(4-fluorophenyl)-6,7,8,9-tetrahydro-5H-[1,2,4]triazolo[1,5-a]azepin-2-amine] and `COc1cc(Nc2nc3n(n2)CCCCC3c2ccc(F)cc2)ccc1-n1cnc(C(F)F)c1` (centres unmarked) [Example 43, N-(4-(4-(difluoromethyl)-1H-imidazol-1-yl)-3-methoxyphenyl)-9-(4-fluorophenyl)-6,7,8,9-tetrahydro-5H-[1,2,4]triazolo[1,5-a]azepin-2-amine 2,2,2-trifluoroacetate] fall in the same range of IC50: 10 to 100 nM for the first, 10 to 100 nM for the second.

`COc1cc(Nc2nc3n(n2)CCCCC3c2ccc(OC(F)(F)F)cc2)ccc1-n1cnc(Cl)c1` (centres unmarked) [Example 31, N-(4-(4-chloro-1H-imidazol-1-yl)-3-methoxyphenyl)-9-(4-(trifluoromethoxy)phenyl)-6,7,8,9-tetrahydro-5H-[1,2,4]triazolo[1,5-a]azepin-2-amine 2,2,2-trifluoroacetate] and `COc1cc(Nc2nc3n(n2)CCCCC3c2cccc(F)c2)ccc1-n1cnc(Cl)c1` (centres unmarked) [Example 44, N-(4-(4-chloro-1H-imidazol-1-yl)-3-methoxyphenyl)-9-(3-fluorophenyl)-6,7,8,9-tetrahydro-5H-[1,2,4]triazolo[1,5-a]azepin-2-amine] cannot be ordered by IC50: < 10 nM for the first, < 10 nM for the second.

`COc1cc(Nc2nc3n(n2)CCCCC3c2ccc(Cl)cc2)ccc1-c1cnn(C)c1` (centres unmarked) [Example 34, 9-(4-chlorophenyl)-N-(3-methoxy-4-(1-methyl-1H-pyrazol-4-yl)phenyl)-6,7,8,9-tetrahydro-5H-[1,2,4]triazolo[1,5-a]azepin-2-amine 2,2,2-trifluoroacetate] and `COc1cc(Nc2nc3n(n2)CCCCC3c2ccc(Cl)nc2)ccc1-n1cnc(Cl)c1` (centres unmarked) [Example 41, N-(4-(4-chloro-1H-imidazol-1-yl)-3-methoxyphenyl)-9-(6-chloropyridin-3-yl)-6,7,8,9-tetrahydro-5H-[1,2,4]thiazolo[1,5-a]azepin-2-amine 2,2,2-trifluoroacetate] fall in the same range of IC50: 10 to 100 nM for the first, 10 to 100 nM for the second.

First: COc1cc(Nc2nc3n(n2)CCCCC3c2cc(F)cc(F)c2)ccc1-n1cnc(Cl)c1 (centres unmarked) [Example 38, N-(4-(4-chloro-1H-imidazol-1-yl)-3-methoxyphenyl)-9-(3,5-difluorophenyl)-6,7,8,9-tetrahydro-5H-[1,2,4]triazolo[1,5-a]azepin-2-amine]
Second: COc1cc(Nc2nc3n(n2)CCCCC3n2cc(Cl)cn2)ccc1-n1cnc(Cl)c1 (centres unmarked) [Example 42, N-(4-(4-chloro-1H-imidazol-1-yl)-3-methoxyphenyl)-9-(4-chloro-1H-pyrazol-1-yl)-6,7,8,9-tetrahydro-5H-[1,2,4]triazolo[1,5-a]azepin-2-amine 2,2,2-trifluoroacetate]
The IC50 of the first is lower: < 10 nM for the first, 10 to 100 nM for the second. The first is the more potent here.

Source: patent US8349880B2, “Bicyclic compounds for the reduction of beta-amyloid production” (Bristol-Myers Squibb Company, priority 2009, dated 2013)
